Assay results: US12502362B2, “Inhibitors of nucleotidyltransferase superfamily enzymes as antibiotics” (priority 2017, dated 2025)
≈ marks a conversion by molar mass, not a printed value. Like-named read-outs stand apart in the source and are kept apart here.

What was measured:
[1] = tested on: S. aureus ATCC strains and MRSA; type: cell-based, Staphylococcus aureus
[2] = tested on: Staphylococcus epidermidis; type: cell-based
Protocol: (§1) It was also tested whether compounds #63 and #285 can inhibit other coagulase-negative Staphylococcus (CNS) including S. epidermidis, S. hominis, etc. […].

Staphylococcus hominis = type: cell-based
Protocol: as §1

S. aureus (ATCC 29213) = assay: MIC80 on S. aureus; type: cell-based, Staphylococcus aureus; conditions: S. aureus ATCC 29213 (MSSA); ≥80% growth inhibition
Protocol: (§2) To further characterize the compounds, the minimal inhibitory concentration (MIC80) were determined for selected compounds. MIC80 is defined as the compound concentration at which ≥80% bacterial growth is inhibited compare to untreated controls. Meanwhile, for the selected compounds, cytotoxicity assays (CC50) were performed on a HepG2-derived hepatoblastoma cell line (HEPDES19). […] For CC50 evaluation, soluble tetrazolium dye (MTS) was used to measure mitochondrial toxicity in a human hepatoblastoma cell line (18). The bacteria (E. coli, S. saprophyticus and A. baumannii) used in MIC80 measurements were the same as that in the primary screening, but for Staphylococcus, S. aureus is used primarily because it is a common pathogen in Staphylococcaeae family, while S. saprophyticus is part of the normal human flora.

E. coli (ATCC 35218) = assay: microbe, parasite or virus in culture; type: cell-based; conditions: E. coli ATCC 35218
Protocol: as §2

CCC[C@@H]1C[C@@H](C(=O)N[C@@H]([C@H]2O[C@H](SC)[C@H](O)[C@@H](O)[C@H]2O)[C@H](C)Cl)N(C)C1 [CLI, clindamycin]
Antibiotic susceptibility ([1]; S. aureus ATCC 25923): S | Antibiotic susceptibility ([1]; S. aureus ATCC 29213): S | Antibiotic susceptibility ([1]; S. aureus ATCC BAA 976): S | Antibiotic susceptibility ([1]; S. aureus ATCC BAA 977): R | Antibiotic susceptibility ([1]; S. aureus ATCC BAA 1026): R | Antibiotic susceptibility ([1]; Sa1 (MRSA)): R | Antibiotic susceptibility ([1]; Sa2 (MRSA)): S | Antibiotic susceptibility ([1]; Sa3 (MRSA)): R | Antibiotic susceptibility ([1]; Sa5 (MRSA)): R | Antibiotic susceptibility ([1]; Sa6 (MRSA)): R | Antibiotic susceptibility ([1]; Sa7 (MRSA)): S | Antibiotic susceptibility ([1]; Sa8 (MRSA)): S | Antibiotic susceptibility ([1]; Sa9 (MRSA)): R | Antibiotic susceptibility ([1]; Sa10 (MRSA)): R | Antibiotic susceptibility ([1]; Sa11 (MRSA)): R | Antibiotic susceptibility ([1]; Sa12 (MRSA)): R | Antibiotic susceptibility ([1]; Sa14 (MRSA)): R | Antibiotic susceptibility ([1]; Sa15 (MRSA)): R | Antibiotic susceptibility ([1]; Sa16 (MRSA)): R | Antibiotic susceptibility ([1]; Sa17 (MRSA)): S | Antibiotic susceptibility ([1]; Sa18 (MRSA)): S | Antibiotic susceptibility ([1]; Sa19 (MRSA)): R | Antibiotic susceptibility ([1]; Sa20 (MRSA)): S | Antibiotic susceptibility ([1]; Sa21 (MRSA)): S | Antibiotic susceptibility ([1]; Sa22 (MRSA)): S | Antibiotic susceptibility ([1]; Sa23 (MRSA)): S | Antibiotic susceptibility ([2]; Se1 (Staphylococcus epidermidis)): R | Antibiotic susceptibility ([2]; Se2 (Staphylococcus epidermidis)): R | Antibiotic susceptibility ([2]; Se3 (Staphylococcus epidermidis)): R | Antibiotic susceptibility ([2]; Se4 (Staphylococcus epidermidis)): R | Antibiotic susceptibility ([2]; Se5 (Staphylococcus epidermidis)): R | Antibiotic susceptibility (Staphylococcus hominis; Sh1 (Staphylococcus hominis)): S | Antibiotic susceptibility (Staphylococcus hominis; Sh2 (Staphylococcus hominis)): S | Antibiotic susceptibility (Staphylococcus hominis; Sh3 (Staphylococcus hominis)): R

Cc1cc(O)c(=O)c(O)cc1-c1cccc2ccccc12 [Compound 146]
MIC80 S. aureus (S. aureus (ATCC 29213)): 19.8 µM (≈ 5.51 µg/mL)

O=C(O)c1ccccc(=O)c1O [Compound 338]
MIC80 S. aureus (S. aureus (ATCC 29213)): 19.8 µM (≈ 3.29 µg/mL)

COc1ccc(Cl)cc1C(=O)Sc1cccccc1=O [Compound 681]
MIC80 S. aureus (S. aureus (ATCC 29213)): 19.8 µM (≈ 6.07 µg/mL) | MIC80 E. coli (E. coli (ATCC 35218)): 19.8 µM (≈ 6.07 µg/mL)

O=c1cccccc1Sc1cccccc1=O [Compound 684]
MIC80 S. aureus (S. aureus (ATCC 29213)): 44.4 µM (≈ 10.8 µg/mL)
